According to paper PMC9474474, “Determination of pharmacokinetics and tissue distribution of a novel lutetium-labeled PSMA-targeted ligand, ^177Lu-DOTA-PSMA-GUL, in rats by using LC–MS/MS” (Scientific Reports, 2022):

Test: Stability in rat plasma, urine, feces and 12 tissues (LC–MS/MS validation)
Type: in vitro ADME
Conditions: for Stability Freeze-thaw: 4 cycles; for Stability Autosampler: 4 °C for 24 h; for Stability Long-term: -70 °C for two weeks; for Stability Short-term: room temperature for 4 h
Procedure: Analytical validation data including stability and process efficiency are shown in Supplementary Tables 3 and 4. […] The process efficiency in each biological matrix is generally consistent (Supplementary Table 4). […] For plasma samples, the dilution integrity was evaluated for a 10- and 20-fold dilution of QC samples at 40,000 ng/mL, which was two times higher than ULOQ, with blank matrix. The accuracy for dilution integrity was 105.56% and 102.21%, while precision was 1.03% and 2.39% for tenfold and 20-fold dilution, respectively (n = 3, each).
Supplementary Table 3. Stability (%) of 175Lu-DOTA-PSMA-GUL in the rat plasma, urine, feces,
Matrix Concentration Short-term Long-term Freeze-thaw Autosampler
(ng/mL) (n=4) (n=4) (n=4) (n=4)

[1] = rat small intestine, 4,000 ng/mL

O=C([O-])CN1CCN(CC(=O)[O-])CCN(CC(=O)[O-])C(Cc2ccc(NC(=S)NCCCC[C@H](NC(=O)N[C@@H](CCC(=O)O)C(=O)O)C(=O)O)cc2)CN(CC(=O)[O-])CC1.[Lu+3] (stereo partly drawn) [^175Lu-DOTA-PSMA-GUL, Lutetium labeled-1,4,7,10-tetraazacyclododecane-1,4,7,10-tetraacetic acid (DOTA)-PSMA-GUL]
Stability Freeze-thaw (rat brain, 400 ng/mL): 96.03 ± 3.73%
Stability Autosampler (rat brain, 400 ng/mL): 96.57 ± 0.76%
Stability Long-term (rat brain, 400 ng/mL): 94.77 ± 3.27%
Stability Short-term (rat brain, 400 ng/mL): 92.98 ± 2.86%
Stability Freeze-thaw (rat brain, 4,000 ng/mL): 102.05 ± 3.19%
Stability Autosampler (rat brain, 4,000 ng/mL): 90.60 ± 1.22%
Stability Long-term (rat brain, 4,000 ng/mL): 95.22 ± 2.73%
Stability Short-term (rat brain, 4,000 ng/mL): 98.51 ± 2.55%
Stability Freeze-thaw (rat fat, 400 ng/mL): 91.54 ± 1.36%
Stability Autosampler (rat fat, 400 ng/mL): 95.57 ± 4.47%
Stability Long-term (rat fat, 400 ng/mL): 96.21 ± 4.47%
Stability Short-term (rat fat, 400 ng/mL): 98.86 ± 3.38%
Stability Freeze-thaw (rat fat, 4,000 ng/mL): 99.64 ± 2.85%
Stability Autosampler (rat fat, 4,000 ng/mL): 95.05 ± 0.70%
Stability Long-term (rat fat, 4,000 ng/mL): 94.41 ± 3.10%
Stability Short-term (rat fat, 4,000 ng/mL): 96.74 ± 3.52%
Stability Freeze-thaw (rat feces, 400 ng/mL): 104.54 ± 6.86%
Stability Autosampler (rat feces, 400 ng/mL): 97.85 ± 3.82%
Stability Long-term (rat feces, 400 ng/mL): 103.52 ± 1.25%
Stability Short-term (rat feces, 400 ng/mL): 90.69 ± 6.38%
Stability Freeze-thaw (rat feces, 4,000 ng/mL): 105.65 ± 2.20%
Stability Autosampler (rat feces, 4,000 ng/mL): 104.03 ± 2.53%
Stability Long-term (rat feces, 4,000 ng/mL): 101.50 ± 1.39%
Stability Short-term (rat feces, 4,000 ng/mL): 104.76 ± 2.40%
Stability Autosampler (rat heart, 400 ng/mL): 98.75 ± 4.29%
Stability Long-term (rat heart, 400 ng/mL): 93.97 ± 1.45%
Stability Short-term (rat heart, 400 ng/mL): 95.08 ± 10.83%
Stability Freeze-thaw (rat heart, 4,000 ng/mL): 97.19 ± 8.21%
Stability Autosampler (rat heart, 4,000 ng/mL): 92.56 ± 3.26%
Stability Long-term (rat heart, 4,000 ng/mL): 93.50 ± 2.78%
Stability Short-term (rat heart, 4,000 ng/mL): 91.74 ± 0.93%
Stability Freeze-thaw (rat kidney, 400 ng/mL): 94.83 ± 2.49%
Stability Autosampler (rat kidney, 400 ng/mL): 95.72 ± 4.19%
Stability Long-term (rat kidney, 400 ng/mL): 95.92 ± 2.97%
Stability Short-term (rat kidney, 400 ng/mL): 95.45 ± 3.51%
Stability Freeze-thaw (rat kidney, 4,000 ng/mL): 94.30 ± 1.02%
Stability Autosampler (rat kidney, 4,000 ng/mL): 97.98 ± 2.82%
Stability Long-term (rat kidney, 4,000 ng/mL): 94.61 ± 2.50%
Stability Short-term (rat kidney, 4,000 ng/mL): 98.14 ± 3.63%
Stability Freeze-thaw (rat liver, 400 ng/mL): 95.93 ± 3.91%
Stability Autosampler (rat liver, 400 ng/mL): 97.39 ± 3.47%
Stability Long-term (rat liver, 400 ng/mL): 97.86 ± 1.87%
Stability Short-term (rat liver, 400 ng/mL): 98.94 ± 5.66%
Stability Freeze-thaw (rat liver, 4,000 ng/mL): 91.72 ± 2.23%
Stability Autosampler (rat liver, 4,000 ng/mL): 92.47 ± 2.32%
Stability Long-term (rat liver, 4,000 ng/mL): 91.83 ± 1.56%
Stability Short-term (rat liver, 4,000 ng/mL): 91.39 ± 2.47%
Stability Freeze-thaw (rat lung, 400 ng/mL): 96.40 ± 1.10%
Stability Autosampler (rat lung, 400 ng/mL): 98.84 ± 7.51%
Stability Long-term (rat lung, 400 ng/mL): 99.08 ± 2.59%
Stability Short-term (rat lung, 400 ng/mL): 98.55 ± 4.32%
Stability Freeze-thaw (rat lung, 4,000 ng/mL): 97.55 ± 0.70%
Stability Autosampler (rat lung, 4,000 ng/mL): 102.00 ± 4.06%
Stability Long-term (rat lung, 4,000 ng/mL): 95.79 ± 1.75%
Stability Short-term (rat lung, 4,000 ng/mL): 96.87 ± 1.97%
Stability Freeze-thaw (rat muscle, 400 ng/mL): 101.47 ± 2.25%
Stability Autosampler (rat muscle, 400 ng/mL): 94.93 ± 2.73%
Stability Long-term (rat muscle, 400 ng/mL): 99.56 ± 2.47%
Stability Short-term (rat muscle, 400 ng/mL): 100.99 ± 2.76%
Stability Freeze-thaw (rat muscle, 4,000 ng/mL): 94.67 ± 0.44%
Stability Autosampler (rat muscle, 4,000 ng/mL): 98.62 ± 2.06%
Stability Long-term (rat muscle, 4,000 ng/mL): 99.74 ± 4.41%
Stability Short-term (rat muscle, 4,000 ng/mL): 99.13 ± 2.50%
Stability Freeze-thaw (rat plasma, 80 ng/mL): 102.92 ± 2.77%
Stability Autosampler (rat plasma, 80 ng/mL): 97.69 ± 3.09%
Stability Long-term (rat plasma, 80 ng/mL): 100.61 ± 2.11%
Stability Short-term (rat plasma, 80 ng/mL): 106.18 ± 0.41%
Stability Freeze-thaw (rat plasma, 16,000 ng/mL): 98.68 ± 1.21%
Stability Autosampler (rat plasma, 16,000 ng/mL): 102.82 ± 1.73%
Stability Long-term (rat plasma, 16,000 ng/mL): 99.20 ± 0.51%
Stability Short-term (rat plasma, 16,000 ng/mL): 101.14 ± 2.43%
Stability Freeze-thaw (rat prostate, 400 ng/mL): 95.17 ± 3.44%
Stability Autosampler (rat prostate, 400 ng/mL): 97.82 ± 2.46%
Stability Long-term (rat prostate, 400 ng/mL): 95.50 ± 3.57%
Stability Short-term (rat prostate, 400 ng/mL): 95.76 ± 1.48%
Stability Freeze-thaw (rat prostate, 4,000 ng/mL): 99.85 ± 2.74%
Stability Autosampler (rat prostate, 4,000 ng/mL): 96.30 ± 0.83%
Stability Long-term (rat prostate, 4,000 ng/mL): 97.12 ± 3.90%
Stability Short-term (rat prostate, 4,000 ng/mL): 99.30 ± 3.24%
Stability Freeze-thaw (rat small intestine, 400 ng/mL): 99.15 ± 6.00%
Stability Autosampler (rat small intestine, 400 ng/mL): 98.68 ± 2.52%
Stability Long-term (rat small intestine, 400 ng/mL): 98.80 ± 2.76%
Stability Short-term (rat small intestine, 400 ng/mL): 99.17 ± 2.35%
Stability Freeze-thaw [1]: 100.54 ± 2.33%
Stability Autosampler [1]: 104.13 ± 2.24%
Stability Long-term [1]: 103.65 ± 4.10%
Stability Short-term [1]: 102.12 ± 2.51%
Stability Freeze-thaw (rat spleen, 400 ng/mL): 98.46 ± 3.74%
Stability Autosampler (rat spleen, 400 ng/mL): 102.59 ± 1.80%
Stability Long-term (rat spleen, 400 ng/mL): 97.10 ± 3.45%
Stability Short-term (rat spleen, 400 ng/mL): 101.61 ± 2.41%
Stability Freeze-thaw (rat spleen, 4,000 ng/mL): 104.53 ± 2.39%
Stability Autosampler (rat spleen, 4,000 ng/mL): 102.93 ± 2.02%
Stability Long-term (rat spleen, 4,000 ng/mL): 106.40 ± 3.85%
Stability Short-term (rat spleen, 4,000 ng/mL): 104.24 ± 4.36%
Stability Freeze-thaw (rat stomach, 400 ng/mL): 97.59 ± 1.68%
Stability Autosampler (rat stomach, 400 ng/mL): 100.00 ± 4.55%
Stability Long-term (rat stomach, 400 ng/mL): 99.72 ± 2.41%
Stability Short-term (rat stomach, 400 ng/mL): 98.96 ± 4.28%
Stability Freeze-thaw (rat stomach, 4,000 ng/mL): 92.47 ± 1.38%
Stability Autosampler (rat stomach, 4,000 ng/mL): 93.61 ± 2.79%
Stability Long-term (rat stomach, 4,000 ng/mL): 94.79 ± 3.41%
Stability Short-term (rat stomach, 4,000 ng/mL): 96.98 ± 3.91%
Stability Freeze-thaw (rat testis, 400 ng/mL): 107.18 ± 0.85%
Stability Autosampler (rat testis, 400 ng/mL): 101.68 ± 6.54%
Stability Long-term (rat testis, 400 ng/mL): 103.74 ± 3.80%
Stability Short-term (rat testis, 400 ng/mL): 100.51 ± 3.98%
Stability Freeze-thaw (rat testis, 4,000 ng/mL): 99.52 ± 0.96%
Stability Autosampler (rat testis, 4,000 ng/mL): 97.56 ± 4.96%
Stability Long-term (rat testis, 4,000 ng/mL): 94.96 ± 4.89%
Stability Short-term (rat testis, 4,000 ng/mL): 101.72 ± 1.48%
Stability Freeze-thaw (rat urine, 400 ng/mL): 105.67 ± 4.65%
Stability Autosampler (rat urine, 400 ng/mL): 94.03 ± 2.84%
Stability Long-term (rat urine, 400 ng/mL): 98.36 ± 1.67%
Stability Short-term (rat urine, 400 ng/mL): 91.67 ± 2.58%
Stability Freeze-thaw (rat urine, 16,000 ng/mL): 92.41 ± 1.12%
Stability Autosampler (rat urine, 16,000 ng/mL): 104.69 ± 2.03%
Stability Long-term (rat urine, 16,000 ng/mL): 100.28 ± 1.39%
Stability Short-term (rat urine, 16,000 ng/mL): 106.46 ± 1.17%
stability in each biological matrix (short-term, long-term, freeze–thaw and autosampler storage conditions): stable
